We go through five compounds from patent publication US20260262643A1, “HERBICIDAL BENZOXAZINES” (FMC CORPORATION, priority 2022, published 2026).

Test [1] has as its system barnyardgrass. Nature of the test: Test A postemergence. The test is classed as in vivo, Echinochloa crusgalli. Conditions: postemergence, 10 days; for Barnyardgrass plant response rating: 125 g ai/ha, 0 to 100 scale, 0 no effect, 100 complete control; for Plant response rating, Barnyardgrass: 500 g ai/ha, visual injury, 0 to 100 scale (0 no effect, 100 complete control). An outline of the steps: (§1)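 Loam/sand soil; pre-em directed soil spray at planting, post-em spray at 1–2 leaf (2–10 cm). Compound in non-phytotoxic solvent + surfactant. Greenhouse 10 d; visual injury vs untreated, 0 = no effect, 100 = complete control.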

The test system of test [2] is barnyardgrass. Nature of the test: Test A preemergence. The test is classed as in vivo, Echinochloa crusgalli. Conditions: visual injury after 10 days, 0 to 100 scale, 0 is no effect, 100 is complete control. An outline of the steps: as §1

On to `Cc1cccc2c1O[C@@H](C)CN2C(=O)c1cccc(-n2cnc(C3COC3)n2)c1` [Compound 109, [(2S)-2,3-Dihydro-2,8-dimethyl-4H-1,4-benzoxazin-4-yl][3-[3-(3-oxetanyl)-1H-1,2,4-triazol-1-yl]phenyl]methanone], for which, in the test on barnyardgrass [1], the “Barnyardgrass plant response rating” value turned out to be 50 and the “Plant response rating, Barnyardgrass” value is listed as 90. Moreover, the “Plant response rating, Barnyardgrass” value in the test on barnyardgrass [2] (125 g ai/ha) came to 90.

As to `CC(C)c1ncn(-c2cc(C(=O)N3C[C@H](C)Oc4c(Cl)cccc43)c3ccccc3c2)n1` [Compound 146], the “Barnyardgrass plant response rating” value with barnyardgrass [1] is 20. Besides, the results for the “Plant response rating, Barnyardgrass” value with barnyardgrass [1], in the test with barnyardgrass [2] (125 g ai/ha) and with barnyardgrass [2] (500 g ai/ha) were 20, 20 and 70, respectively.

As for `CC(C)c1ncn(-c2cc(C(=O)N3C[C@H](C)Oc4c(Cl)cccc43)c3ccccc3c2)n1` [Compound 145], the “Barnyardgrass plant response rating” value in the test on barnyardgrass [1] is listed as 20. Also, the entries for the “Plant response rating, Barnyardgrass” value in the test on barnyardgrass [1], in the test with barnyardgrass [2] (125 g ai/ha) and with barnyardgrass [2] (500 g ai/ha) were 20, 0 and 40, respectively.

As to `CC(C)c1ncn(-c2cc3c(c(C(=O)N4C[C@H](C)Oc5c(Cl)cccc54)c2)OCC3)n1` [Compound 147], the “Barnyardgrass plant response rating” value with barnyardgrass [1] is on record as 10. Moreover, the “Plant response rating, Barnyardgrass” value with barnyardgrass [1] was determined as 70; with barnyardgrass [2] (125 g ai/ha) it was 40; with barnyardgrass [2] (500 g ai/ha), 100.

On to `C[C@H]1CN(C(=S)c2cccc(-n3cncn3)c2)c2cccc(Cl)c2O1` [Compound 139, [(2S)-8-Chloro-2,3-dihydro-2-methyl-4H-1,4-benzoxazin-4-yl][3-(1H-1,2,4-triazol-1-yl)phenyl]methanethione], for which, in the test on barnyardgrass [1], the “Barnyardgrass plant response rating” value is given as 20. The “Plant response rating, Barnyardgrass” value with barnyardgrass [1] is recorded as 70; in the test with barnyardgrass [2] (125 g ai/ha), 70; in the test with barnyardgrass [2] (500 g ai/ha) it was 90.
